Experimental data as given in US11795510B2, “Identification of epigenomic reprogramming in cancer and uses thereof” (The Johns Hopkins University, priority 2016, dated 2023).
“Also recorded” adds a separate entry of the source.

What was measured:
[1] = tested on: H3K9Me2 and H3K27Ac across CDH2 and TOP2B gene loci; experiment: ChIP-qPCR across CDH2 and TOP2B loci; format: cell-based, human
Procedure: (§1) Tests for statistical significance (two-tailed students t-test) were performed on data collected from technical replicate (performed in parallel at the same time) or biological replicate (performed at different times) experiments as indicated in the figure legends using excel software for western blot densitometry, MTT assays, and tumor measurements. Whole genome bisulfite sequencing and RNA-seq were performed with HiSeq instruments (Illumina) as described in Hansen et al. (Increased methylation variation in epigenetic domains across cancer types. Nat Genet 43, 768-75 (2011)). ChIP assays were performed as previously described for fixed cells with sonication. For ChIP-qPCR, equal amounts of paired input/IP DNA were amplified by real-time PCR (Roche LightCycler96) and fold enrichments calculated. Primer sequences are listed in Supplementary Table 11. […] IP sequencing reads were normalized to their corresponding inputs. Sequencing procedures, bioinformatics methods including domain calls, and statistical analyses are described in detail within the supplementary methods section.

A38Lg cells = experiment: RNA-seq of control (DMSO) and 6AN treated cells, differentially expressed genes; format: cell-based, human
Procedure: RNAi experiments were performed with siRNA transfections (Oligofectamine, Life Technologies) using negative control siRNA (Sigma, SIC001) and pre-designed siRNA oligonucleotides against indicated genes in parallel (Sigma, PGD: SASI_Hs02 00334150, CDH2: SASI_Hs01_00153995, TOP2B: SASI_Hs02_00311874). siRNAs against mutant KRAS^G12V (CUACGCCAACAGCUCCAAC) (SEQ ID NO:1) were custom designed. Cells were incubated with siRNAs for 4 days after transfection and harvested. For drug treatments in 2-D, cells were grown to 70-80% confluency and treated for 3 days with 250 uM 6AN or DMSO negative control.
as §1
RNA-Seq data processing. 100 bp paired-end HiSeq2000 sequencing reads were aligned against human genome (hg19) by OSA (version 2.0.1) with default parameters. After alignment, only uniquely aligned reads were kept for further analysis. Gene annotation information was downloaded from ENSEMBL (ensembl.com, release 66). Reads count for each gene of all samples were estimated using HTSeq (huber.embl.de/users/anders/HTSeq/doc/overview.html) and then were used to identify differentially expressed (DE) genes using DESeq package. Genes with FDR<0.01 and fold-change>1.5 were considered DE genes.

[2] = genes down in A38Lg vs A38Per and down in 6AN vs DMSO treated A38Lg, RNA-seq DE genes
[3] = genes down in A38Lg vs A38Per and up in 6AN vs DMSO treated A38Lg, RNA-seq DE genes
[4] = genes recurrently down vs. A38Per and down in 6AN treated A38Lg cells, out of all 6AN down genes
[5] = genes recurrently down vs. A38Per and down in 6AN treated A38Lg cells, out of all recurrent down genes
[6] = genes recurrently down vs. A38Per and up in 6AN treated A38Lg cells, out of all 6AN up genes
[7] = genes recurrently down vs. A38Per and up in 6AN treated A38Lg cells, out of all recurrent down genes
[8] = genes recurrently up across all samples vs. A38Per and down in 6AN vs. DMSO treated A38Lg cells, out of all 6AN down genes
[9] = genes recurrently up vs. A38Per and down in 6AN treated A38Lg cells, out of all recurrent up genes
[10] = genes recurrently up vs. A38Per and up in 6AN treated A38Lg cells, out of all recurrent up genes
[11] = genes up in A38Lg vs A38Per and down in 6AN vs DMSO treated A38Lg, RNA-seq DE genes
[12] = genes up in A38Lg vs A38Per and up in 6AN vs DMSO treated A38Lg, RNA-seq DE genes

With `NC(=O)c1ccc(N)nc1` [6AN, 6-aminonicotinamide] the “H3K9Me2 across CDH2/TOP2B loci (ChIP-qPCR)” value ([1]; matched lung metastasis A38Lg) was “enrichment of H3K9Me2 across both loci; also recorded: induced spreading of H3K9Me2 across the locus”, the “H3K27Ac over the CDH2 genic region (ChIP-qPCR)” value ([1]; matched lung metastasis A38Lg) was “concordant reductions; also recorded: corresponding loss of H3K27Ac” and the “H3K9Me2 and H3K27Ac enrichments across CDH2/TOP2B loci (ChIP-qPCR), control vs 6AN” value ([1]; peritoneal subclone A38Per) was “nearly identical enrichments; also recorded: no effect”. For the same molecule, the “Coregulated/6AN down (38Lg down/6AN down): coregulated genes / all 6AN down genes” value (A38Lg cells; [2]) was 277/1968, the “Coregulated/38Lg down (38Lg down/6AN down): coregulated genes / all 38Lg down genes” value (A38Lg cells; [2]) was 277/4402 and the “Coregulated/6AN down (38Lg down/6AN down), percent” value (A38Lg cells; genes down in A38Lg vs A38Per and down in 6AN vs DMSO treated A38Lg, share of 6AN down genes) was “(14%)”. The “Coregulated/38Lg down (38Lg down/6AN down), percent” value (A38Lg cells; genes down in A38Lg vs A38Per and down in 6AN vs DMSO treated A38Lg, share of 38Lg down genes) was “(0.06%)”, the “Coregulated/6AN up (38Lg down/6AN up): coregulated genes / all 6AN up genes” value (A38Lg cells; [3]) was 915/2192 and the “Coregulated/38Lg down (38Lg down/6AN up): coregulated genes / all 38Lg down genes” value (A38Lg cells; [3]) was 915/4402. The “Coregulated/6AN up (38Lg down/6AN up), percent” value (A38Lg cells; genes down in A38Lg vs A38Per and up in 6AN vs DMSO treated A38Lg, share of 6AN up genes) was “(42%)”, the “Coregulated/38Lg down (38Lg down/6AN up), percent” value (A38Lg cells; genes down in A38Lg vs A38Per and up in 6AN vs DMSO treated A38Lg, share of 38Lg down genes) was “(21%)” and the “Recurrent Down/6AN Down: Coregulated/6AN down (gene count ratio)” value (A38Lg cells; [4]) was 111/1968. The “Recurrent Down/6AN Down: Coregulated/6AN down (percent)” value (A38Lg cells; [4]) was “(0.06%)”, the “Recurrent Down/6AN Down: Coregulated/Recurrent down (gene count ratio)” value (A38Lg cells; [5]) was 111/1842 and the “Recurrent Down/6AN Down: Coregulated/Recurrent down (percent)” value (A38Lg cells; [5]) was “(0.06%)”. The “Recurrent Down/6AN Up: Coregulated/6AN up (gene count ratio)” value (A38Lg cells; [6]) was 332/2192, the “Recurrent Down/6AN Up: Coregulated/6AN up (percent)” value (A38Lg cells; [6]) was “(15%)” and the “Recurrent Down/6AN Up: Coregulated/Recurrent down (gene count ratio)” value (A38Lg cells; [7]) was 332/1842. For the same molecule, the “Recurrent Down/6AN Up: Coregulated/Recurrent down (percent)” value (A38Lg cells; [7]) was “(18%)”, the “Recurrent Up/6AN Down: Coregulated/6AN down (gene count ratio)” value (A38Lg cells; [8]) was 255/1968 and the “Recurrent Up/6AN Down: Coregulated/6AN down (percent)” value (A38Lg cells; [8]) was “(13%)”. For the same molecule, the “Recurrent Up/6AN Down: Coregulated/Recurrent up (gene count ratio)” value (A38Lg cells; [9]) was 255/891, the “Recurrent Up/6AN Down: Coregulated/Recurrent up (percent)” value (A38Lg cells; [9]) was “(28.6%)” and the “Recurrent Up/6AN Up: Coregulated/6AN up (gene count ratio)” value (A38Lg cells; genes recurrently up vs. A38Per and up in 6AN treated A38Lg cells, out of all 6AN up genes) was 82/2192. For the same molecule, the “Recurrent Up/6AN Up: Coregulated/Recurrent up (gene count ratio)” value (A38Lg cells; [10]) was 82/891, the “Recurrent Up/6AN Up: Coregulated/Recurrent up (percent)” value (A38Lg cells; [10]) was “(9%)” and the “Coregulated/6AN down (38Lg up/6AN down): coregulated genes / all 6AN down genes” value (A38Lg cells; [11]) was 1032/1968. The “Coregulated/38Lg up (38Lg up/6AN down): coregulated genes / all 38Lg up genes” value (A38Lg cells; [11]) was 1032/4368, the “Coregulated/6AN down (38Lg up/6AN down), percent” value (A38Lg cells; genes up in A38Lg vs A38Per and down in 6AN vs DMSO treated A38Lg, share of 6AN down genes) was “(52%)” and the “Coregulated/38Lg up (38Lg up/6AN down), percent” value (A38Lg cells; genes up in A38Lg vs A38Per and down in 6AN vs DMSO treated A38Lg, share of 38Lg up genes) was “(24%)”. For the same molecule, the “Coregulated/6AN up (38Lg up/6AN up): coregulated genes / all 6AN up genes” value (A38Lg cells; [12]) was 379/2192, the “Coregulated/38Lg up (38Lg up/6AN up): coregulated genes / all 38Lg up genes” value (A38Lg cells; [12]) was 379/4368 and the “Coregulated/6AN up (38Lg up/6AN up), percent” value (A38Lg cells; genes up in A38Lg vs A38Per and up in 6AN vs DMSO treated A38Lg, share of 6AN up genes) was “(17%)”. For the same molecule, the “Coregulated/38Lg up (38Lg up/6AN up), percent” value (A38Lg cells; genes up in A38Lg vs A38Per and up in 6AN vs DMSO treated A38Lg, share of 38Lg up genes) was “(0.09%)”.
